# Tests used:
# A549 cells = experiment: MTT cytotoxicity assay, A549 cells; assay type: cell-based, human; details: at a concentration of 100 µM
# Description: (§1) MT-2 cells and A549 cells were mixed with HAdV-19, 2× 10^5 cells/mL with 10^4 TCID50/mL and 1× 10^5 cells/mL with 3 × 10^3 TCID50/mL, respectively, in plate wells in the presence or absence of various concentrations of the compounds (MOI: 0.035 for MT-2 cells and 0.021 for A549). The plates were incubated for five days. At the end of the incubation period, CPE was determined using the MTT assay, as described previously.[11],[12] Thus, 25 µl of the MTT solution (7.5 mg/ml) in phosphate-buffered saline (Wako, Japan) was added to each well of the plate. Then, the plate was incubated at 37°C for 2 h. After incubation, 150 µl of medium was removed with care in order not to draw cells. To solubilize the formazan crystals and neutralize the viral infectivity, 100 μl of acidified isopropanol (4 ml concentrated HCl per 1 l of isopropanol) containing 10% (v/v) Triton X-100 was added to each well. Formazan crystals were completely solubilized by pipetting up and down, the absorbance at 560 nm of the wells was read by microplate reader (GloMax, Promega, Japan). The 50% antiviral effective concentration (EC50) was defined as the drug concentration that protects 50% of virus-infected cells from virus-induced cell damage and/or death.[12] The cytotoxicity of each compound was measured in parallel using the MTT assay. The 50% cytotoxicity concentration (CC50) was defined as the drug concentration that reduces cell viability by 50%. Data shown represent mean EC50 and CC50values (±1 standard deviation) derived from the results of two to four independent experiments conducted in duplicate.
# [1] = MTT cytotoxicity assay, A549 cells; assay type: cell-based, human; details: human, MTT, mean ± 1 SD, read-out: CC50 (50% cytotoxicity concentration)
# Description: as §1
# HAdV-19 [2] = experiment: MTT-based antiviral assay, HAdV-19-infected A549 cells; assay type: cell-based, Human adenovirus type 19; details: for EC50: Human mastadenovirus D, 120 h, HAdV-19, five days, MTT, mean ± 1 SD, read-out: EC50 (50% antiviral effective concentration)
# Description: as §1, with “The 50% antiviral effective concentration (EC50) was defined as the drug concentration that protects 50% of virus-infected cells from virus-induced cell damage and/or death.[12]” left out, “50%.” for “50%. Data shown represent mean EC50 and CC50values (±1 standard deviation) derived from the results of two to four independent experiments conducted in duplicate.”
# HAdV-19 [3] = experiment: MTT-based antiviral assay, HAdV-19-infected MT-2 cells; assay type: cell-based, Human adenovirus type 19; details: for EC50: Human mastadenovirus D, MT2, 120 h, HAdV-19, five days, MTT, mean ± 1 SD, read-out: EC50 (50% antiviral effective concentration)
# Description: as §1, with “The 50% antiviral effective concentration (EC50) was defined as the drug concentration that protects 50% of virus-infected cells from virus-induced cell damage and/or death.[12]” left out, “50%.” for “50%. Data shown represent mean EC50 and CC50values (±1 standard deviation) derived from the results of two to four independent experiments conducted in duplicate.”
# MT-2 cells = experiment: MTT cytotoxicity assay, MT-2 cells; assay type: cell-based, human; details: at a concentration of 100 µM
# Description: as §1
# [4] = MTT cytotoxicity assay, MT-2 cells; assay type: cell-based, human; details: human, MTT, mean ± 1 SD, read-out: CC50 (50% cytotoxicity concentration)
# Description: as §1
Structure (SMILES),EC50 (HAdV-19 [2]) [µM],tolerance by cells (A549 cells),CC50 at 5 days [1] [µM],"SI (selectivity index, ratio of CC50 and EC50) (HAdV-19 [2])","SI (selectivity index, ratio of CC50 and EC50) (HAdV-19 [3])",EC50 (HAdV-19 [3]) [µM],tolerance by cells (MT-2 cells),CC50 at 5 days [4] [µM],antiviral activity against HAdV-19 (in words) (HAdV-19 [3]; MTT assay)
"Nc1ccn(C[C@@H](CO)OCP(=O)(O)O)c(=O)n1 [CDV, (S)-1–(3-hydroxy-2-phosphonylmethoxypropyl)cytosine]",4.2 ± 1.1,tolerated,> 100,>24,>1.6,62 ± 26,tolerated,> 100,
"Cc1cn([C@H]2C[C@H](F)[C@@H](CO)O2)c(=O)[nH]c1=O [FdT, 3′-deoxy-3′-fluorothymidine]",0.03 ± 0.01,,7.6 ± 4.2,,,1.8 ± 0.2,,36 ± 5,
"NC(=O)c1ncn([C@@H]2O[C@H](CO)[C@@H](O)[C@H]2O)n1 [RBV, ribavirin]",> 53,,53 ± 21,,,> 18,,18 ± 1,little antiviral activity

# Further compounds by falling EC50 (HAdV-19 [2]), results first:
EC50 (HAdV-19 [2]) [µM],Structure (SMILES),tolerance by cells (A549 cells),CC50 at 5 days [1] [µM],"SI (selectivity index, ratio of CC50 and EC50) (HAdV-19 [2])","SI (selectivity index, ratio of CC50 and EC50) (HAdV-19 [3])",EC50 (HAdV-19 [3]) [µM],tolerance by cells (MT-2 cells),CC50 at 5 days [4] [µM],antiviral activity against HAdV-19 (in words) (HAdV-19 [3]; MTT assay)
54 ± 27,"Nc1nc(O)c2ncn(COC(CO)CO)c2n1 [GCV, ganciclovir]",tolerated,> 100,>1.9,>1.7,60 ± 7,tolerated,> 100,
0.35 ± 0.04,"Nc1ccn([C@H]2CC[C@@H](CO)O2)c(=O)n1 [ddC, 2′,3′-dideoxycytidine]",tolerated,> 100,>286,>38,2.6 ± 0.4,tolerated,> 100,
